According to patent US4977146A, “2,5-diaryl tetrahydrofurans and analogs thereof as PAF antagonists” (Merck & Co., Inc., priority 1990, dated 1990):

biological target: T1, PAF specific receptor binding site on human platelet membranes (Homo sapiens, UniProt P25105); assay: inhibition of the binding of [3H] N-methylcarbamoyl-PAF to human platelet membranes; settings: trans configuration, read-out: % inhibitor* (% inhibition of the binding of [3H] N-methylcarbamoyl-PAF to human platelet membranes)
T1 construct: 100 μg of the platelet plasma membrane suspension; from tissue; host or cells: human platelets (plasma membranes)
Protocol: The ability of a compound of formula (I) to inhibit the PAF binding to its specific receptor binding site on rabbit or human platelet or PMN plasma membranes was measured by a recently developed assay.
The inhibition of ^3 [H] PAF or ^3 [H]N-methylcarbamoyl-PAF binding to the human or rabbit platelet or PMN plasma membrane by a PAF antagonist of formula (I) was determined by a method employing isotopic labeling and filtration techniques. Generally, a series of Tris-buffered solutions of the selected antagonist at predetermined concentrations were prepared. […] Two control samples, one of which (C1) contains all the ingredients described above except the antagonist and the other (C2) contains C1 plus a 1000-fold excess of unlabeled PAF, were also prepared and incubated simultaneously with the test samples. After the incubation was completed, the contents of each test tube were filtered in vacuo through a Whatman GF/C fiberglass filter and the residue washed rapidly several times with a total of 20 ml cold (0°-5° C.) Tris-buffer solution. Each washed residue was then suspended in 10 ml scintillation solution (Aquasol 2, New England Nuclear, Connecticut) and the radioactivity was counted in a Packard Tri-Carb 460CD Liguid Scintillation System.

T1 sequence (P25105 whole entry): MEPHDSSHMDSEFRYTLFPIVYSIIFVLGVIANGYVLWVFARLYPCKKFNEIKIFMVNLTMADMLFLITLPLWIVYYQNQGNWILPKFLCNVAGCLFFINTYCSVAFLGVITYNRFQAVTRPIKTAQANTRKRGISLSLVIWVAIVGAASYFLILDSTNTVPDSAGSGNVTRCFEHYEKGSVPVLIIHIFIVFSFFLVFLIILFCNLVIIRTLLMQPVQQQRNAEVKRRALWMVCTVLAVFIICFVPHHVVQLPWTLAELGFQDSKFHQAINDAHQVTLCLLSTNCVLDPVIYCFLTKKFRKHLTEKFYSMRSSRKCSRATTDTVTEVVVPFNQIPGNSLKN

Row | inhibition [%] | Compound
1 | 23 | CCCOc1c(OCCCO)cc([C@@H]2CC[C@@H](c3cc(OC)c(OC)c(OC)c3)O2)cc1S(=O)(=O)CC(C)N(C)C (relative stereo) [trans-2-[3-(2-N,N-dimethylaminopropyl-sulfonyl)-4-n-propoxy-5-(3-hydroxypropoxy)phenyl]5-(3,4,5-trimethoxyphenyl)tetrahydrofuran]
2 | 33 | CCCOc1c(OCC(C)=O)cc([C@H]2CC[C@H](c3cc(OC)c(OC)c(OC)c3)O2)cc1S(=O)(=O)CCO (relative stereo) [SO2 CH2 CH2OH / CH2 CH2 CH3 / CH2 COCH3, trans-2-[3-(2-Hydroxyethylsulfonyl)-4-n-propoxy-5-(2-oxo-propoxy)phenyl]-5-(3,4,5-trimethoxy-phenyl)tetrahydrofuran]
3 | 58 | CCCOc1cc([C@@H]2CC[C@@H](c3cc(OC)c(OC)c(OC)c3)O2)cc(S(=O)(=O)CCN(C)C)c1OCCC (relative stereo) [trans-2-[3-(2-N,N-Dimethylaminoethylsulfonyl)-4,5-di-n-propoxyphenyl]-5-(3,4,5-trimethoxyphenyl)tetrayhydrofuran]
4 | 36 | CCCOc1c(OCCCO)cc([C@@H]2CC[C@@H](c3cc(OC)c(OC)c(OC)c3)O2)cc1S(=O)(=O)CC(C)NCC (relative stereo) [trans-2-[3-(2-N-Ethylaminopropylsulfonyl)-4-propoxy-5-(3-hydroxypropoxy)phenyl]-5-(3,4,5-trimethoxyphenyl)tetrahydrofuran]
5 | 46 | CCCOc1c(OCCCO)cc([C@@H]2CC[C@@H](c3cc(OC)c(OC)c(OC)c3)O2)cc1S(=O)(=O)CCN(C)C (relative stereo) [trans-2-[3-(2-N,N-Dimethylaminoethylsulfonyl)-4-n-propoxy-5-(3-hydroxypropoxy)phenyl]-5-(3,4,5-trimethoxyphenyl)tetrahydrofuran]
6 | 18 | CCCOc1c(OCCCO)cc([C@H]2CC[C@H](c3cc(OC)c(OC)c(OC)c3)O2)cc1S(=O)(=O)CC(C)N (relative stereo) [trans-2-[3-(2-Aminopropylsulfonyl)-4-n-propoxy-5-(3-hydroxypropoxy)phenyl]5-(3,4,5-trimethoxyphenyl)tetrahydrofuran]
7 | 26 | CCCOc1c(OCCCO)cc([C@H]2CC[C@H](c3cc(OC)c(OC)c(OC)c3)O2)cc1S(=O)(=O)CC(C)O (relative stereo) [trans-2-[3-(2-hydroxypropylsulfonyl)-4-n-propoxy-5-(3-hydroxypropoxy)phenyl]-5-(3,4,5-trimethoxyphenyl)tetrahydrofuran]
8 | 33 | CCCNCCS(=O)(=O)c1cc([C@@H]2CC[C@@H](c3cc(OC)c(OC)c(OC)c3)O2)cc(OCCC)c1OCCC (relative stereo) [trans-2-[3-(2-N-Propylaminoethylsulfonyl)-4,5-dipropoxyphenyl]-5-(3,4,5-trimethoxyphenyl) tetrahydrofuran]
9 | 17 | CCCOc1c(OCCCN(C)C)cc([C@@H]2CC[C@@H](c3cc(OC)c(OC)c(OC)c3)O2)cc1S(=O)(=O)CC(C)=O (relative stereo) [2-[3-(2-Oxopropylsulfonyl)4-n-propoxy-5-{3-(N,N-dimethylamino)-n-propoxy}phenyl]-5-(3,4,5-trimethoxyphenyl)tetrahydrofuran]
10 | 38 | CCCOc1c(OCCCO)cc([C@@H]2CC[C@@H](c3cc(OC)c(OC)c(OC)c3)O2)cc1S(=O)(=O)CC(C)NC (relative stereo) [trans-2-[3-(2-N-Methylaminopropylsulfonyl)-4-n-propoxy-5-(3-hydroxypropoxy)phenyl]-5-(3,4,5-trimethoxyphenyl)tetrahydrofuran]
11 | 31 | CCCOc1c(OCC(C)=O)cc([C@@H]2CC[C@@H](c3cc(OC)c(OC)c(OC)c3)O2)cc1S(=O)(=O)CCN(C)C (relative stereo) [trans-2-[3-(2-N,N-Dimethylaminoethyl-sulfonyl)-4-n-propoxy-5-(2-oxo-propoxyphenyl]-5-(3,4,5-trimethoxyphenyl)tetrahydrofuran]
12 | 65 | CCCOc1c(OCC(C)=O)cc([C@H]2CC[C@H](c3cc(OC)c(OC)c(OC)c3)O2)cc1S(=O)(=O)CC(C)=O (relative stereo) [SO2 CH2 COCH3 / CH2 CH2 CH3 / CH2 COCH3, trans-2-[3-(2-Oxopropyl-sulfonyl)-4-n-propoxy-5-(2-oxopropoxy)phenyl]-5-(3,4,5-trimethoxyphenyl)tetrahydrofuran]
13 | 14 | CCCOc1c(OCC(C)O)cc([C@@H]2CC[C@@H](c3cc(OC)c(OC)c(OC)c3)O2)cc1S(=O)(=O)CCN(C)C (relative stereo) [trans-2-[3-(2-N,N-Dimethylaminoethylsulfonyl)-4-n-propoxy-5-(2-hydroxypropoxy)phenyl]-5-(3,4,5-trimethoxyphenyl)tetrahydrofuran]
14 | 42 | CCCOc1cc([C@@H]2CC[C@@H](c3cc(OC)c(OC)c(OC)c3)O2)cc(S(=O)(=O)CCNCC)c1OCCC (relative stereo) [trans-2-[3-(2-N-Ethylaminoethylsulfonyl)-4,5-dipropoxyphenyl]-5-(3,4,5-trimethoxyphenyl)tetrahydrofuran]
15 | 27 | CCCOc1cc([C@H]2CC[C@H](c3cc(OC)c(OC)c(OC)c3)O2)cc(S(=O)(=O)CCN)c1OCCC (relative stereo) [trans-2-[3-(2-Aminoethylsulfonyl)-4,5-dipropoxyphenyl]-5-(3,4,5-trimethoxyphenyl)tetrahydrofuran]
16 | 58 | CCCOc1cc([C@@H]2CC[C@@H](c3cc(OC)c(OC)c(OC)c3)O2)cc(S(=O)(=O)CCNC)c1OCCC (relative stereo) [trans-2-[3-(2-N-Methylaminoethylsulfonyl)-4,5-di-n-propoxyphenyl]-5-(3,4,5-trimethoxyphenyl) tetrahydrofuran]
17 | 52 | CCCOc1c(OCC(C)=O)cc([C@H]2CC[C@H](c3cc(OC)c(OC)c(OC)c3)O2)cc1S(=O)(=O)CC(C)O (relative stereo) [trans-2-[3-(2-hydroxypropylsulfonyl)-4-n-propoxy-5-(2-oxopropoxy)phenyl]-5-(3,4,5-trimethoxy-phenyl)tetrahydrofuran]
